Laboratory results as given in ChEMBL document CHEMBL1122407, “Synthesis and biological activity of various 3'-azido and 3'-amino analogues of 5-substituted pyrimidine deoxyribonucleosides” (1983).
pEC50: −log10 of the molar value. “And” between values parts separate entries of the source, which are not always exact repeats. Equal values may be shown once. The source made the active and inactive calls. The calls are words filed in the database; no cut-off is given here.

Experiments:
[1] = molecular target: Deoxycytidine kinase (Mus musculus) (UniProt P43346); experiment: Inhibitory activity against deoxycytidine kinase from L1210 cells; format: cell-based; set-up: concentration or dose not given beside the values; scale not given: the % may be the effect or the level left
L1210 [2] = experiment: In vitro inhibition against replication of L1210 murine cells; inactive; format: functional, cell-based; details: Mus musculus
Sarcoma-180 [3] = experiment: In vitro inhibition against replication of […] cells; inactive; format: functional, cell-based; details: Mus musculus
[4] = molecular target: T1, Thymidine kinase, cytosolic (Mus musculus) (UniProt P04184); experiment: Inhibitory activity against thymidine kinase (TK) from L1210 cells; format: cell-based; set-up: concentration or dose not given beside the values
T1 sequence (whole entry): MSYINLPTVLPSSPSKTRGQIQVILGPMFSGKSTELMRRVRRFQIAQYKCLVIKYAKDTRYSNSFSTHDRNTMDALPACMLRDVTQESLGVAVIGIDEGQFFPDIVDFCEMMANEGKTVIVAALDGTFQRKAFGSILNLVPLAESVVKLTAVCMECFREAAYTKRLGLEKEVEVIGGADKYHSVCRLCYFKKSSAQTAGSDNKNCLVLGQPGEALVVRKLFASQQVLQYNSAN

L1210 [5] = experiment: In vitro inhibition against replication of L1210 murine cells; format: functional; details: Mus musculus, read-out: ED50 (the source's name)
Sarcoma-180 [6] = experiment: In vitro inhibition against replication of Sarcoma-80 cells; format: functional; details: Mus musculus, read-out: ED50 (the source's name)

Deoxycytidine kinase (Mus musculus), sequence (P43346 whole entry, looked up): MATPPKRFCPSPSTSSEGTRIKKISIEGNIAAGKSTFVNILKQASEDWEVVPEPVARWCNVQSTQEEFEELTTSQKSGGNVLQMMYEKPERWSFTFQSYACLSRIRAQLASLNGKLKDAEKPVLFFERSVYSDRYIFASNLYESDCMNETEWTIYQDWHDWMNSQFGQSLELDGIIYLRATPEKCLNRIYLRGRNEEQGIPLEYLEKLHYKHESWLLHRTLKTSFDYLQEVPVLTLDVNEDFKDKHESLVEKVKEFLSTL

Row | Compound | Activity [1] | ED50 (L1210 [2]) | ED50 (Sarcoma-180 [3]) | Activity [4] | pEC50 (L1210 [5]) | pEC50 (Sarcoma-180 [6])
1 | Cc1cn([C@H]2C[C@H](N=[N+]=[N-])[C@@H](CO)O2)c(=O)nc1N | 62% and 55% | inactive | inactive | 92% and 81% | – | –
2 | [N-]=[N+]=N[C@H]1C[C@H](n2cc(F)c(=O)[nH]c2=O)O[C@@H]1CO | 94% and 89% | – | – | 78% and 71% | 4.70 | 4.40
3 | N[C@@H]1C[C@H](n2cc(C(F)(F)F)c(=O)[nH]c2=O)O[C@@H]1CO | 101% and 87% | – | – | 81% and 61% | 3.82 | 4.00
4 | [N-]=[N+]=N[C@H]1C[C@H](n2ccc(N)nc2=O)O[C@@H]1CO | 86% and 78% | inactive | inactive | 85% and 72% | – | –
5 | N[C@@H]1C[C@H](n2cc(F)c(=O)[nH]c2=O)O[C@@H]1CO | 93% | – | – | 92% and 82% | 4.82 | 6.00
6 | O=c1ccn([C@H]2C[C@H](O)[C@@H](CO)O2)c(=O)[nH]1 | 88% and 92% | – | – | – | – | –
7 | [N-]=[N+]=N[C@H]1C[C@H](n2ccc(=O)[nH]c2=O)O[C@@H]1CO | 92% | inactive | inactive | – | – | –
8 | N[C@H]1C[C@H](n2ccc(=O)[nH]c2=O)O[C@@H]1CO | 97% and 94% | – | – | – | 4.74 | 4.30
9 | Nc1nc(=O)n([C@H]2C[C@@H](N)[C@@H](CO)O2)cc1F | 82% and 73% | – | – | 81% and 70% | 5.00 | 6.00
10 | N[C@@H]1C[C@H](n2cc(I)c(=O)[nH]c2=O)O[C@@H]1CO | 87% and 91% | – | – | 95% and 71% | 3.40 | –
11 | [N-]=[N+]=N[C@H]1C[C@H](n2cc(C(F)(F)F)c(=O)[nH]c2=O)O[C@@H]1CO | 91% and 85% | – | – | – | 3.40 | 4.00
12 | Nc1ccn([C@H]2C[C@H](N)[C@@H](CO)O2)c(=O)n1 | 89% and 85% | – | – | 77% and 84% | 6.15 | 5.40
13 | Cc1cn([C@H]2C[C@@H](N)[C@@H](CO)O2)c(=O)nc1N | 90% and 82% | – | – | 93% and 80% | 4.60 | 4.70
14 | Cc1cn([C@H]2C[C@H](N)[C@@H](CO)O2)c(=O)[nH]c1=O | 96% and 87% | – | – | 95% and 72% | – | –
15 | Cc1cn([C@H]2C[C@H](N=[N+]=[N-])[C@@H](CO)O2)c(=O)[nH]c1=O | 89% and 84% | – | – | – | – | –
16 | O=c1[nH]c(=O)n([C@H]2C[C@H](O)[C@@H](CO)O2)cc1I | 87% and 97% | – | – | – | – | –
17 | Cc1cn([C@H]2C[C@@H](N)[C@@H](CF)O2)c(=O)[nH]c1=O | 91% and 88% | inactive | inactive | 89% and 83% | – | –
18 | [N-]=[N+]=N[C@H]1C[C@H](n2cc(F)c(N)nc2=O)O[C@@H]1CO | 70% and 61% | – | – | 88% and 103% | 4.60 | –
19 | Cc1cn([C@H]2C[C@@H](N=[N+]=[N-])[C@@H](CF)O2)c(=O)[nH]c1=O | 93% and 89% | inactive | inactive | 93% and 95% | – | –
